The source of these data is US20100041756A1, “METHOD OF MODULATING B CELL FUNCTIONING” (priority 2004, published 2010).

For assay [1], the system named is inguinal lymph node cells. The assay is described as follows: Cytokine production by draining (inguinal) lymph node cells of treated CIA mice (ELISA). The settings on record: for IL-5 production by lymph node cells: treated mice (FIG. 8). Type of assay: in vivo, mouse. The procedure: FIG. 8 is a graphical representation depicting that mice with established CIA were treated for 10 days with 3,4-DAA or vehicle control. Mice were then killed and draining (inguinal) lymph node cells were cultured for 72 h in the absence or presence of type II collagen.
Inguinal lymph nodes were excised from Tranilast-treated and control mice. Alternatively, inguinal lymph nodes were removed from untreated arthritic mice (day 1-5 of arthritis) and Tranilast was added in vitro. In both cases, LNC were cultured in RPMI 1640 containing FCS (10% v/v), 2-mercaptoethanol (20 μM), L-glutamine (1% w/v), penicillin (100 U/ml) and streptomycin (100 μg/ml) in the presence or absence of type II collagen (50 μg/ml). Secreted cytokines (IFN-γ, IL-5, TNFα and IL-10) were measured after 72 h. by ELISA. In brief, 96 well ELISA plates were coated with the respective capture antibody, blocked with bovine serum albumin (2% w/v), and then incubated with LNC culture supernatants (neat) overnight at 4° C. After washing, bound cytokines were detected using biotinylated detect antibodies. A standard curve was generated using known concentrations of the appropriate recombinant cytokine and the concentrations of cytokines present in culture supernatants were estimated by reference to the standard curve.

The test system of assay [2] is B cells stimulated with anti-CD40. The assay is described as follows: Purified B cell proliferation, anti-CD40, 3H-thymidine incorporation (Example 4). Type of assay: cell-based, mouse. On the procedure: FIG. 10 is a graphical representation depicting that 3,4-DAA and 3-HAA inhibit B and T cell proliferation in vitro. Purified B and T cells were stimulated for 72 h with anti-CD40 (a), or anti-CD3/anti-CD28 (b) respectively, in the presence of varying doses of 3,4-DAA, or 3-HAA.
A single cell suspension was prepared from spleen by mincing through a cell strainer, and erythrocytes were lysed using an ammonium chloride solution (Sigma, St Louis, Mo., USA). B cells were positively enriched by using anti-IgM MACS microbeads, and T cells were positively enriched using anti-CD4 MACS microbeads and the MACS system, according to the manufacturer's guidelines (Miltenyi Biotec, Bergisch Gladbach, Germany). Purity was assessed by flow cytometric analysis (B cell>90% CD19+, T cell>90% CD4+). Cells were cultured at 5×10^5 cells/ml in 200 μl complete RPMI, as above, in a flat bottom 96-well plate and cultured for 72 h. B cells were stimulated with anti-CD40 monoclonal antibody (10 μg/ml; BD), and T cells were stimulated with 5 μg/ml plate-bound anti-CD3 (BD), 5 μg/ml soluble anti-CD28 (BD). Tranilast, 3-HAA, or vehicle (DMSO) were incubated at concentrations stated with the cultures. 48 hours after stimulation, 100 μl culture medium was collected, and cells were pulsed with 1 μCi ^3H thymidine per well for 18 h. Cells were then harvested and plates assessed for incorporation. Each assay was performed on a minimum of 3 occasions. Data shown is of one representative experiment, and is expressed as mean+/−SD of triplicate in culture. IFN-γ, IL-10 and IL-5 levels was assessed in the culture medium by ELISA, as above.
On the technique in general: Dividing cells build labelled thymidine or BrdU into new DNA.

As for `COc1ccc(/C=C/C(=O)Nc2ccccc2C(=O)O)cc1OC` [Tranilast, 2-[[3-(3,4-dimethoxyphenyl)-1-oxo-2-propenyl]amino]benzoic acid], in assay [1] (cultured 72 h, mice given 400 mg/kg for 10 days (FIG. 8)), the “IFN-γ production by lymph node cells” value is reported as “significantly reduced”. The “IL-5 production by lymph node cells” value in assay [1] (cultured 72 h) is on record as “unaffected”; in assay [1] (cultured 72 h, listed as 3,4-DAA), “significantly reduced”. For the same compound, the “cytokine production on restimulation with collagen” value in assay [1] (cultured 72 h in the presence of type II collagen (FIG. 8)) was “differences between the groups were not significant”. Besides, the IC50 in assay [2] (Mus musculus, B-cell, anti-CD40, 72 h, 3H-thymidine (FIG. 10A), read-out: IC50 for inhibition of B cell proliferation) amounted to 73.1 µM. Besides, the B cell proliferation entry in assay [2] (anti-CD40, varying doses (FIG. 10A)) is listed as “dose-dependently inhibited”.
